According to US20110313672A1, “CELLULAR ANTIOXIDANT ACTIVITY (CAA) ASSAY” (CORNELL UNIVERSITY, priority 2007, published 2011):
Values joined by “and” are separate entries in the source; they are usually repeats but may differ in a detail not shown here. Identical values can stand only once. “Also recorded” adds a separate entry of the source. Like-named read-outs stand apart in the source and are kept apart here.

Legend:
HepG2 cells [1] = assay: in vitro; conditions: human, 24 h
Protocol: (§1) Briefly, HepG2 cells are seeded at 4×10^4/well on a 96-well plate in 100 μL growth medium and incubated for 24 h at 37° C. The medium is removed and the cells are washed with PBS. Treatments of fruit extracts or antioxidant compounds in 100 μL treatment medium (Williams' Medium E supplemented with 2 mM L-glutamine and 10 mM Hepes) are applied to the cells and the plates are incubated at 37° C. for 24 h. The treatment medium is removed and the cells are washed with PBS. A volume of 50 μL/well methylene blue staining solution (98% HBSS, 0.67% glutaraldehyde, 0.6% methylene blue) is applied to each well and the plate is incubated at 37° C. for 1 h.
(§2) Excess dye is removed by immersing the plate in fresh deionized water until the water appears clear. The excess water should be tapped out of the wells and the plate allowed to air-dry briefly before addition of 100 μL elution solution (49% PBS, 50% ethanol, 1% acetic acid) to each well. The microplate is then placed on a bench-top shaker for 20 minutes to allow uniform elution. The absorbance is read at 570 nm with blank subtraction using, for example a MRX II DYNEX spectrophotometer (DYNEX Inc., Chantilly, Va.). Concentrations of pure compounds or fruit extracts that decrease the absorbance by more than 10% when compared to the control are considered to be cytotoxic.
(§3) Cytotoxicity was measured using the method of Oliver et al. (31) with modifications by our laboratory (32). […] The medium was removed and the cells were washed with PBS. Treatments of fruit extracts or antioxidant compounds in 100 μL treatment medium (Williams' Medium E supplemented with 2 mM L-glutamine and 10 mM Hepes) were applied to the cells and the plates were incubated at 37° C. for 24 h. The treatment medium was removed and the cells were washed with PBS. A volume of 50 μL/well methylene blue staining solution (98% HBSS, 0.67% glutaraldehyde, 0.6% methylene blue) was applied to each well and the plate was incubated at 37° C. for 1 h. The dye was removed and the plate was immersed in fresh deionized water three times, or until the water was clear. The water was tapped out of the wells and the plate was allowed to air-dry briefly before 100 μL elution solution (49% PBS, 50% ethanol, 1% acetic acid) was added to each well. The microplate was placed on a bench-top shaker for 20 minutes to allow uniform elution. The absorbance was read at 570 nm with blank subtraction using the MRX II DYNEX spectrophotometer (DYNEX Inc., Chantilly, Va.). Concentrations of pure compounds or fruit extracts that decreased the absorbance by more than 10% when compared to the control were considered to be cytotoxic.
(§4) The median cytotoxic concentration (CC50) was calculated for each fruit.
(§5) Briefly, HepG2 cells were seeded at 4×10^4/well on a 96-well plate in 100 μL growth medium and incubated for 24 h at 37° C. The medium was removed, and the cells were washed with PBS. Flavonoids in 100 μL growth medium were applied to the cells, and the plates were incubated at 37° C. for 24 h. The medium was removed, and the cells were washed with PBS before a volume of 50 μL/well methylene blue staining solution (98% HBSS, 0.67% glutaraldehyde, 0.6% methylene blue) was applied to each well, and the plate was incubated at 37° C. for 1 h. The dye was removed, and the plate was immersed in fresh deionized water until the water was clear. The water was tapped out of the wells, and the plate was allowed to air-dry briefly before 100 μL of elution solution (49% PBS, 50% ethanol, 1% acetic acid) was added to each well. The microplate was placed on a benchtop shaker for 20 min to allow uniform
(§6) elution. The absorbance was read at 570 nm with blank subtraction using the MRX II Dynex spectrophotometer (Dynex Inc., Chantilly, Va.). The median cytotoxic concentration (CC50) was calculated for each flavonoid.

HepG2 cells [2] = assay: Cellular antioxidant activity (CAA) assay: inhibition of peroxyl radical-induced DCFH oxidation; assay type: cell-based, human; conditions: for CAA value / percent of the antioxidant activity of quercetin in the CAA assay: Example 1; for CAA value: pure compounds, EC50 converted to quercetin equivalents; for percent of the antioxidant activity of quercetin in the CAA assay: summary statement
Protocol: Cells (e.g., human hepatocellular carcinoma cells; HepG2) are seeded at a density of e.g., 6×10^4/well on a 96-well microplate in 100 μL growth medium/well. It is preferred that only the inside wells of e.g., a 96-well microplate are used for the assay, since the outer wells have increased variation compared to that of the inner wells. Twenty-four hours after seeding the growth medium is removed and the wells are washed with PBS. Triplicate wells are treated for 1 h with 100 μL of a test compound (e.g., pure phytochemical compounds or fruit extracts) plus 25 μM DCFH-DA dissolved in treatment medium.
600 μM ABAP is then applied to the cells in 100 μL HBSS and the 96-well microplate is placed into a plate reader e.g., Fluoroskan Ascent FL plate-reader (ThermoLabsystems, Franklin, Mass.) at 37° C. Emission at 538 nm is measured with excitation at 485 nm, for example every 5 min for 1 h. Each plate should include triplicate control and blank wells: control wells contain cells treated with DCFH-DA and oxidant; blank wells contain cells treated with dye and HBSS without oxidant.
A test compound is assayed in multiple wells of e.g., a 96-well cell culture plate. Some wells are washed with 100 μL of phosphate-buffered saline (PBS) prior to the addition of ABAP, while other wells were not washed prior to the addition of ABAP. It was noted that the measured antioxidant activity of some fruit extracts (e.g., blueberries) was different when a PBS wash was used compared to when there was no PBS wash (see Table 2; FIGS. 3 and 4). This is likely due to non-specific binding of certain antioxidant compounds to the outer membrane, or a reduced uptake of the compound, thus the ratio of antioxidant activity values obtained with a PBS wash compared to a non-PBS wash indicates the bioavailability of the test compound. In order to accurately measure the intracellular antioxidant activity of a test compound, a PBS wash prior to the addition of a peroxyl initiator (e.g, ABAP) is necessary. The values obtained for cells assayed using a PBS wash should be compared to values obtained for the same cells assayed without a PBS wash. One of skill in the art can plan and perform experiments on a test compound in the presence and absence of a PBS wash, in order to accurately assess the intracellular antioxidant capacity of the test compound.
After blank subtraction from the fluorescence readings, the area under the curve of fluorescence versus time is integrated to calculate the cellular antioxidant activity (CAA) value at each concentration of pure phytochemical compound or fruit extract as follows:
where ∫SA is the integrated area under the sample fluorescence versus time curve and ∫CA is the integrated area from the control curve. The median effective dose (EC50) was determined for the pure phytochemical compounds and fruit extracts from the median effect plot of log (fa/fu) vs. log (dose), where fa is the fraction affected and fu is the fraction unaffected by the treatment. To quantify intra-experimental variation, the EC50 values are stated as mean±SD for triplicate sets of data obtained from the same experiment. Inter-experimental variation is obtained for some representative pure phytochemical compounds and fruit extracts by averaging the fluorescence values from triplicate wells in each trial to obtain one EC50 value per experiment and calculating the mean±SD for at least four trials. In each experiment, a standard is used, for example quecetin, thus permitting the cellular antioxidant activities for a test compounds to be expressed as μmol quercetin equivalents (QE)/100 μmol compound. Fruit extracts are expressed as μmol QE/100 g fruit. In order to compare the antioxidant quality of different fruits, cellular antioxidant activity (CAA) is also calculated as μmol QE/100 μmol total phenolics.
Human hepatocellular carcinoma HepG2 cells were seeded at a density of 6×10^4/well on a 96-well microplate in 100 μL growth medium/well. […]

in vitro = conditions: human
Protocol: as §1, §2, §3, §4, §5, §6

[3] = Oxygen radical absorbance capacity (ORAC) assay; conditions: Example 3; flavonoids; mean ± SD, n ≧ 3
Protocol: The peroxyl radical scavenging efficacy of selected fruits was measured using the ORAC assay (Prior, R. L., et al (2003) J. Agric. Food Chem. 51:3273-3279). Briefly, 20 μL of blank, Trolox standard, or fruit extracts in 75 mM potassium phosphate buffer, pH 7.4 (working buffer), was added to triplicate wells in a black, clear-bottom, 96-well microplate. The triplicate samples were distributed throughout the microplate and were not placed side-by-side, to avoid any effects on readings due to location. In addition, no outside wells were used, as use of those wells results in greater variation. A volume of 200 μL of 0.96 μM fluorescein in working buffer was added to each well and incubated at 37° C. for 20 min, with intermittent shaking, before the addition of 20 μL of freshly prepared 119 mM ABAP in working buffer using a 12-channel pipetter. The microplate was immediately inserted into a Fluoroskan Ascent FL plate reader (ThermoLabsystems) at 37° C. The decay of fluorescence at 538 nm was measured with excitation at 485 nm every 4.5 min for 2.5 h. The areas under the fluorescence versus time curve for the samples minus the area under the curve for the blank were calculated and compared to a standard curve of the areas under the curve for 6.25, 12.5, 25, and 50 μM Trolox standards minus the area under the curve for blank. ORAC values were expressed as mean micromoles of Trolox equivalents (TE) per 100 g of fruit±SD for triplicate data from one experiment.
ORAC measurements were performed as described herein in Example 2.

[4] = Homo sapiens, HepG2, Example 1, Table 1, PBS wash, pure phytochemical compounds, mean ± SD, n=3, read-out: EC50 for inhibition of peroxyl radical-induced DCFH oxidation
[5] = Homo sapiens, HepG2, Example 1, Table 1, no PBS wash, pure phytochemical compounds, mean ± SD, n=3, read-out: EC50 for inhibition of peroxyl radical-induced DCFH oxidation
[6] = CAA assay, either protocol or protocol not specified
[7] = Example 3, Table 7, PBS wash, flavonoids, mean ± SD, n=3
[8] = Example 3, Table 7, no PBS wash, flavonoids, mean ± SD, n=3

Compound | EC50 (HepG2 cells [2]; [4]) [µM] | EC50 (HepG2 cells [2]; [5]) [µM] | EC50 (HepG2 cells [2]; [7]) | EC50 (HepG2 cells [2]; [8]) | Cytotoxicity (cytotoxic concentration) (HepG2 cells [1]) [µM] | CAA value (HepG2 cells [2]; no PBS wash) [μmol QE/100 μmol] | percent of the antioxidant activity of quercetin in the CAA assay (HepG2 cells [2]) | ORAC [3] | cellular antioxidant activity, result in words (HepG2 cells [2]; [6]) | also measured
O=C1O[C@H]([C@@H](O)CO)C(O)=C1O [Ascorbic acid, ascorbic acid] | > 500 | 67.5 ± 9.4 | – | – | >500 | 8.84±1.18 | less than ten percent | – | – | cellular antioxidant activity, result in words (HepG2 cells [2]; PBS wash protocol): low
O=C(O)/C=C/c1ccc(O)c(O)c1 [Caffeic acid, caffeic acid] | 525 ± 38 | 95.3 ± 15.3 | – | – | >500 | 5.59±0.70 | less than ten percent | – | – | –
COc1cc(/C=C/C(=O)O)ccc1O [Ferulic acid, ferulic acid] | > 500 | > 250 | – | – | >500 | – | – | – | – | cellular antioxidant activity, result in words (HepG2 cells [2]; no PBS wash protocol): low activity within the doses tested
O=C(O)c1cc(O)c(O)c(O)c1 [Gallic acid] | 335 ± 26 | 65.4 ± 7.3 | – | – | >500 | 9.08±0.95 | less than ten percent | – | – | EC50 (HepG2 cells [2]; Homo sapiens, HepG2, Table 2, no PBS wash, mean ± SD over the trials, read-out: Interexperimental EC50): 64.3 ± 10.7 µM; EC50 (HepG2 cells [2]; Homo sapiens, HepG2, Table 2, no PBS wash, one line per trial (trials 1-5), n=3, read-out: Intraexperimental EC50): 65.4 ± 7.3 µM; EC50 (HepG2 cells [2]; Homo sapiens, HepG2, Table 3, PBS wash, mean ± SD over the trials, read-out: Interexperimental EC50): 318 ± 36 µM; EC50 (HepG2 cells [2]; Homo sapiens, HepG2, Table 3, PBS wash, one line per trial (trials 1-5), n=3, read-out: Intraexperimental EC50): 289 ± 12 µM
(+)-catechin | – | – | – | – | – | 2.03±0.24 | less than ten percent | 12.4±4.0 μmol of TE/μmol and 12.4 ± 4.0 ab μmol of TE/μmol | low or no cellular antioxidant activity; also recorded: low CAA | EC50 (HepG2 cells [2]; Example 1, Table 1, PBS wash, pure phytochemical compounds, mean ± SD, n=3, read-out: EC50 for inhibition of peroxyl radical-induced DCFH oxidation): > 500 µM; EC50 (HepG2 cells [2]; Example 1, Table 1, no PBS wash, pure phytochemical compounds, mean ± SD, n=3, read-out: EC50 for inhibition of peroxyl radical-induced DCFH oxidation): 292 ± 32 µM; EC50 (HepG2 cells [2]; Example 3, Table 7, PBS wash, flavonoids, mean ± SD, n=3, read-out: EC50): > 800 µM; CAA (HepG2 cells [2]; Example 3, Table 7, no PBS wash): 2.5 ± 0.1 μmol of QE/100 μmol; EC50 (HepG2 cells [2]; Example 3, text, no PBS wash, read-out: EC50): 360 ± 17 µM; cellular antioxidant activity, result in words (HepG2 cells [2]; PBS wash protocol): very low, unquantifiable, activity; cellular antioxidant activity, result in words (HepG2 cells [2]; PBS wash protocol, listed as catechin): low and low activity at the concentrations tested

Now from value to compound, other results behind:

EC50 (HepG2 cells [2]; [4]) [µM] | EC50 (HepG2 cells [2]; [5]) [µM] | EC50 (HepG2 cells [2]; [7]) | EC50 (HepG2 cells [2]; [8]) | Compound | Cytotoxicity (cytotoxic concentration) (HepG2 cells [1]) [µM] | CAA value (HepG2 cells [2]; no PBS wash) [μmol QE/100 μmol] | percent of the antioxidant activity of quercetin in the CAA assay (HepG2 cells [2]) | ORAC [3] | cellular antioxidant activity, result in words (HepG2 cells [2]; [6]) | also measured
– | – | no activity | no activity | O=c1cc(-c2ccc(O)cc2)oc2cc(O)cc(O)c12 [apigenin] | – | – | – | 10.7 ± 1.5 bc μmol of TE/μmol | no cellular antioxidant activity; also recorded: no CAA | CC50 at 24 h (in vitro): > 80 µM
– | – | no activity | no activity | O=c1cc(-c2ccccc2)oc2cc(O)cc(O)c12 [chrysin] | – | – | – | – | no activity | CC50 at 24 h (in vitro): > 200 µM
– | – | no activity | no activity | O=c1c(-c2ccc(O)cc2)coc2cc(O)ccc12 [daidzein] | – | – | – | 8.52 ± 2.11 cde μmol of TE/μmol | no cellular antioxidant activity | CC50 at 24 h (in vitro; HepG2 cells): > 100 µM
– | – | no activity | no activity | C[C@@H]1O[C@@H](OC[C@H]2O[C@@H](Oc3c(-c4ccc(O)c(O)c4)oc4cc(O)cc(O)c4c3=O)[C@H](O)[C@@H](O)[C@@H]2O)[C@H](O)[C@H](O)[C@H]1O [rutin] | – | – | – | – | no activity | CC50 at 24 h (in vitro; HepG2 cells): > 200 µM
